Experimental data reported in the NIST ThermoML archive (doi:10.1021/acs.jced.8b00236).
± gives the expanded uncertainty stated by the source.

Test: mn = molality of the nth substance listed, in mol/kg
Details: 75 kPa, Liquid; for viscosity: Capillary tube (Ostwald / Ubbelohde) method; for speed of sound: Frequency=3 MHz, Single path-length method; for mass density: Vibrating tube method

NCCCCCC(=O)O [6-aminohexanoic acid] + O
Details	mass density [kg/m3]	speed of sound [m/s]	viscosity [mPa·s]
288.15 K, m1 = 0.1386	1002.94 ± 0.3	1484.1 ± 4	1.237 ± 0.026
288.15 K, m1 = 0.2786	1006.69 ± 0.3	1501.7 ± 4	1.324 ± 0.028
288.15 K, m1 = 0.4193	1010.34 ± 0.3	1518.8 ± 4	1.43 ± 0.03
288.15 K, m1 = 0.5602	1013.86 ± 0.3	1535.5 ± 4	1.543 ± 0.032
288.15 K, m1 = 0.7027	1017.3 ± 0.3	1551.7 ± 4	1.676 ± 0.035
288.15 K, m1 = 0.8448	1020.62 ± 0.3	1566.7 ± 4	1.804 ± 0.037
288.15 K, m1 = 0.9881	1023.86 ± 0.3	1581.4 ± 4	1.945 ± 0.04
288.15 K, m1 = 1.132	1026.99 ± 0.3	1595.3 ± 4	2.103 ± 0.044
293.15 K, m1 = 0.1386	1001.94 ± 0.3	1499.7 ± 4	1.088 ± 0.023
293.15 K, m1 = 0.2786	1005.61 ± 0.3	1516.3 ± 4	1.158 ± 0.024
293.15 K, m1 = 0.4193	1009.17 ± 0.3	1532.6 ± 4	1.25 ± 0.026
293.15 K, m1 = 0.5602	1012.62 ± 0.3	1548.3 ± 4	1.344 ± 0.028
293.15 K, m1 = 0.7027	1016.01 ± 0.3	1563.8 ± 4	1.459 ± 0.03
293.15 K, m1 = 0.8448	1019.28 ± 0.3	1578.3 ± 4	1.566 ± 0.032
293.15 K, m1 = 0.9881	1022.48 ± 0.3	1592.5 ± 4	1.689 ± 0.035
293.15 K, m1 = 1.132	1025.6 ± 0.3	1606 ± 4	1.825 ± 0.038
298.15 K, m1 = 0.1386	1000.74 ± 0.3	1513 ± 4	0.962 ± 0.02
298.15 K, m1 = 0.2786	1004.36 ± 0.3	1529 ± 4	1.025 ± 0.021
298.15 K, m1 = 0.4193	1007.89 ± 0.3	1544.6 ± 4	1.103 ± 0.023
298.15 K, m1 = 0.5602	1011.3 ± 0.3	1559.8 ± 4	1.183 ± 0.025
298.15 K, m1 = 0.7027	1014.65 ± 0.3	1574.6 ± 4	1.277 ± 0.027
298.15 K, m1 = 0.8448	1017.88 ± 0.3	1588.6 ± 4	1.377 ± 0.029
298.15 K, m1 = 0.9881	1021.04 ± 0.3	1602.2 ± 4	1.481 ± 0.031
298.15 K, m1 = 1.132	1024.11 ± 0.3	1615.3 ± 4	1.59 ± 0.033
303.15 K, m1 = 0.1386	999.323 ± 0.3	1524.5 ± 4	0.865 ± 0.018
303.15 K, m1 = 0.2786	1002.91 ± 0.3	1539.8 ± 4	0.916 ± 0.019
303.15 K, m1 = 0.4193	1006.4 ± 0.3	1554.7 ± 4	0.984 ± 0.02
303.15 K, m1 = 0.5602	1009.78 ± 0.3	1569.1 ± 4	1.062 ± 0.022
303.15 K, m1 = 0.7027	1013.08 ± 0.3	1583.2 ± 4	1.137 ± 0.024
303.15 K, m1 = 0.8448	1016.26 ± 0.3	1596.8 ± 4	1.222 ± 0.025
303.15 K, m1 = 0.9881	1019.37 ± 0.3	1610 ± 4	1.314 ± 0.027
303.15 K, m1 = 1.132	1022.39 ± 0.3	1622.5 ± 4	1.423 ± 0.03
308.15 K, m1 = 0.1386	997.675 ± 0.3	1534.6 ± 4	0.781 ± 0.016
308.15 K, m1 = 0.2786	1001.24 ± 0.3	1549.2 ± 4	0.821 ± 0.017
308.15 K, m1 = 0.4193	1004.7 ± 0.3	1563.5 ± 4	0.881 ± 0.018
308.15 K, m1 = 0.5602	1008.06 ± 0.3	1577.4 ± 4	0.949 ± 0.02
308.15 K, m1 = 0.7027	1011.35 ± 0.3	1591 ± 4	1.02 ± 0.021
308.15 K, m1 = 0.8448	1014.52 ± 0.3	1603.9 ± 4	1.096 ± 0.023
308.15 K, m1 = 0.9881	1017.62 ± 0.3	1616.4 ± 4	1.177 ± 0.024
308.15 K, m1 = 1.132	1020.64 ± 0.3	1628.4 ± 4	1.267 ± 0.026
